ChEMBL document CHEMBL4842378, “An Enantiodefined Conformationally Constrained Fatty Acid Mimetic and Potent Inhibitor of ToxT” (ACS Med Chem Lett, 2021)
The source made the active and inactive calls. The rule behind the calls is not given here.

Key:
[1] = target: T1, TCP pilus virulence regulatory protein (Vibrio cholerae serotype O1 (strain ATCC 39541 / Classical Ogawa 395 /O395)) (UniProt A5F384); assay: Inhibition of wild type ToxT in Vibrio cholerae El Tor strain C6706 at 500 nM measured after 3.5 hrs by beta-galactosidase assay relative to control
T1 sequence (whole entry): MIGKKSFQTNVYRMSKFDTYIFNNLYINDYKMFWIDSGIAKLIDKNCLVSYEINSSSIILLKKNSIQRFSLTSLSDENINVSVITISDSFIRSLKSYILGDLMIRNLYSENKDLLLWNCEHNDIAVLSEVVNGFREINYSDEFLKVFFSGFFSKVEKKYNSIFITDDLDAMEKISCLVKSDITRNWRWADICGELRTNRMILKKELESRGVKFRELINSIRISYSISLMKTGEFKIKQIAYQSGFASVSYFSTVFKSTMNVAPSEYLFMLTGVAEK

[2] = target: T1, TCP pilus virulence regulatory protein (Vibrio cholerae serotype O1 (strain ATCC 39541 / Classical Ogawa 395 /O395)); assay: Inhibition of ToxT in Vibrio cholerae at upto 5 uM measured after 3.5 hrs by beta-galactosidase assay relative to control; conditions: dose microM <=5, time 3.5 hrs
[3] = target: T1, TCP pilus virulence regulatory protein (Vibrio cholerae serotype O1 (strain ATCC 39541 / Classical Ogawa 395 /O395)); assay: Inhibition of ToxT in delattoxT tcpA-linked LacZ reporter gene harboring Vibrio cholerae at 500 nM measured after 3.5 hrs by beta-galactosidase assay relative to control

SMILES	inhibition [1]	inhibition [2] [%]	inhibition [3] [%]
CCCC1=C2CCC[C@@]2(C)CC[C@@H]1CC/C=C/C(=O)O	Active	–	–
CCCCC1=C2CCC[C@@]2(C)CC[C@@H]1CC/C=C/C(=O)O	25%	–	–
CCCCC1=C2CCC[C@]2(C)CC[C@H]1CCC(=O)O	50%	–	–
CCCCC1=C2CCC[C@@]2(C)CC[C@@H]1CCC(=O)O	80%	–	–
O=C(O)CCCN1C(=O)c2cccc3cccc(c23)C1=O	–	20	–
Cc1cccc2c1C(CCC(=O)O)CCC2 (racemic)	45%	–	80
CCCC1=C2CCC[C@@]2(C)CC[C@@H]1CCC(=O)O	60%	–	–
